The source of these data is patent US20130005749A1, “NOVEL FORMULATION AND TREATMENT METHODS” (The University of Queensland, priority 2011, published 2013).

One data set concerns ulcerative colitis. Briefly: Human patient R-LS with ulcerative colitis. As to the method:
Because treatment with AZA and 6-MP was not an option, they were treated instead with 6-TG using the conventional therapeutic protocol, namely bolus administration of 40 mg per day (R-LS weighs approximately 60 kg) and 5-aminosalicylic acid.
Again, they were treated with 6-TG using the conventional therapeutic protocol, namely bolus administration of 40 mg per day and balsalazide. […] Maintenance therapy to prevent relapse was again prescribed using a lower dose of balsalazide.
Given their clinical history, the inventors were reluctant to prescribe another bolus dose of 6-TG due to the known hepatotoxic side-effects that could occur.
Accordingly, R-LS was given 60 mg per day 6-TG in a divided dosage (3 separate doses of equal amounts). The doses were given at intervals throughout the day.

The subject of data set [1] is inflammatory bowel disease. Conditions: after one year; Ansari et al. 2008; cited from earlier work.
Another data set concerns acute childhood leukemia. The conditions noted are these: cited from earlier work; for prevalence of VOD in patients: acute childhood leukemia cases, Stork et al. 2010.
For another data set, the system named is HPRT−/− C57BL/6 mice. The experiment in a line: VOD score in HPRT-/- mouse model. The class given is in vivo. The conditions noted are these: all dosage levels including 1 and 2.5 mg/kg body weight, gavage each day for 14 days. The source says: (§1) The total possible VOD score was 240.
In data set [2] the test system is Winnie (C57Bl/6 Muc2 Winnie/Winnie) mice. The experiment in a line: Histological colitis scores in Winnie mouse model of spontaneous colitis. In kind it is in vivo. As to the method: This experiment usesa mouse model of spontaneous colitis called Winnie(C57Bl/6 Muc2^Winnie/Winnie) due to a single SNP mutation in Muc2 in C57Bl/6 mice. The model resembles ulcerative colitis. The mutation confers an intestinal epithelial cell defect, which causes a Th17 dominant inflammatory response (Heazlewood et al. 2008 and Eri et al. 2011).
(§2) Male or female C57Bl/6 Winnie mice were gavaged twice daily for 11-days in an experiment with three groups (6 animals per group):
(§3) Group 1: 1.25 mg/kg 6TG evening and morning (total 2.5 mg/kg/d, N=6)
Group 2: vehicle control twice daily (N=6), or
(§4) Group 3: 2.5 mg/kg/d 6TG in the morning and vehicle gavage in the afternoon ([…]).
This experiment uses Winnie(C57Bl/6 Muc2^Winnie/Winnie).
(§5) Male or female C57Bl/6 Winnie mice were gavage once daily for 28-days in an experiment with two groups (6 animals per group):
(§6) Group 1: 0.5 mg/kg 6TG once daily gavage
Group 2: vehicle control (N=6),

Data set [3] has the same test system. The experiment in a line: SOS in Winnie mice. In kind it is in vivo. As to the method: as §1, §2, §3, §4, §5, §6
Data set [4] has the same test system. The experiment in a line: Immunosuppression (venous blood leukocytes) and myelotoxicity in Winnie mice. The conditions noted are these: for immunosuppression (reductions in venous blood leukocytes): 11 days. The class given is in vivo. On the procedure:
as §2, §3, §4, §5, §6

For a further data set, the system named is C57BL/6 mice. Briefly: Veno-occlusive disease (VOD/SOS) blinded histological score in C57BL/6 mice. The conditions noted are these: 10 days.
Where [5] appears, read: 0.5 mg/kg once daily gavage, 28 days.

Consider `Cn1cnc([N+](=O)[O-])c1Sc1ncnc2nc[nH]c12` [AZA, 6-(3-methyl-5-nitroimidazol-4-yl)sulfanyl-7H-purine], for which the adverse reactions result with ulcerative colitis (human, in vivo) was “life-threatening adverse reactions”. For the same molecule, in data set [1], the “patients who stop therapy due to side-effects or non-responsiveness” value is listed as “approximately 40%”.
As for `Sc1ncnc2nc[nH]c12` [Formulation 6-MP, 3,7-dihydropurine-6-thione], the adverse reactions entry in the data set with ulcerative colitis (human, in vivo) is given as “life-threatening adverse reactions”. Also, in the data set on acute childhood leukemia, the “prevalence of VOD in patients” value is reported as “not observed”. In data set [1], the “patients who stop therapy due to side-effects or non-responsiveness” value is “approximately 40%”.
For the molecule `Nc1nc2nc[nH]c2c(=S)[nH]1` [Formulation 6-TG, 2-amino-6,7-dihydro-3H-purine-6-thione], the VOD score result in the data set on HPRT−/− C57BL/6 mice was “VOD was shown to be abrogated”. Besides, the Histological colitis scores result is “significantly improved spontaneous colitis” in data set [2] (0.5 mg/kg/d once daily gavage, 28 days); “significantly improved spontaneous colitis” in data set [2] (1.25 mg/kg twice daily gavage, 11 days); “significantly improved spontaneous colitis” in data set [2] (2.5 mg/kg/d gavaged once daily, 11 days). Also, the SOS entry in data set [3] (setting [5]) is “did not occur”; in data set [3] (2.5 mg/kg/d once daily gavage × 11 days) it was “causes SOS”; in data set [3] (split 1.25 mg/kg b.d dose, 11 days) it was “SOS is largely avoided”. Further, in data set [4] (setting [5]), the Immunosuppression entry was “mild”. In data set [4] (setting [5]), the myelotoxicity entry is on record as “did not have myelotoxicity”. Moreover, the “immunosuppression (reductions in venous blood leukocytes)” value in data set [4] (single full dosing 2.5 mg/kg/d) and in data set [4] (split dosing 1.25 mg/kg twice daily) was “moderate immunosuppression” in each case. In addition, the “response to the treatment” value in the data set with ulcerative colitis (60 mg per day in 3 separate equal doses, six months (relapse December 2010)) is “once again effective”; with ulcerative colitis (bolus 40 mg per day with 5-aminosalicylic acid, after 4 months (2003)), “extremely positive response”; in the data set with ulcerative colitis (bolus 40 mg per day with balsalazide, ~5-6 months (relapse 2006)) it was “positive response”. The “clinical effectiveness in treating the disease compared with 6-MP” value with acute childhood leukemia (Stork et al. 2010 (and others)) is listed as “equivalent or even more clinically effective”. Besides, the “prevalence of VOD in patients” value with acute childhood leukemia is listed as “high prevalence of VOD”. Moreover, the VOD entry in the data set on C57BL/6 mice (2.5 mg/kg body weight/day bolus by oral gavage) is “exhibited VOD”; in the data set on C57BL/6 mice (2.5 mg/kg body weight/day bolus intraperitoneally), “VOD was not observed”.
`O=C(O)c1cc(/N=N/c2ccc(S(=O)(=O)Nc3ccccn3)cc2)ccc1O` [sulfasalazine]: the adverse reactions entry with ulcerative colitis (patient history before 2003) is reported as “life-threatening adverse reactions”.
